Starred links: 1 amine or outer side, 2 acyl side, 3 side chain; linkers in the order of their positions; H or OH if unused. Positions of bridges follow the written chain, without caps; N, C: chain ends. Non-standard residues stand in square brackets, D forms with d. Residues, ends and D or L forms follow the SMILES beside them. *: point of attachment. Trp(6-aza) = N[C@@H](Cc1c[nH]c2cnccc12)C(=O)O; X2 = N=C(N)Nc1cccc(CC(N[*:1])C(=O)[*:2])c1; Bip = N[C@@H](Cc1ccc(-c2ccccc2)cc1)C(=O)O; Nle(6-Ph) = N[C@@H](CCCCc1ccccc1)C(=O)O; Arg(Me2s) = CN=C(NC)NCCC[C@H](N)C(=O)O; Met(O2) = CS(=O)(=O)CC[C@H](N)C(=O)O; X4 = CCCCCCC[C@H](N[*:1])C(=O)[*:2]; hhPhe = N[C@@H](CCCc1ccccc1)C(=O)O; hCit = NC(=O)NCCCC[C@H](N)C(=O)O; Cit = NC(=O)NCCC[C@H](N)C(=O)O; Ahp(2) = CCCCC[C@H](N)C(=O)O; X1 = COCCOCCOCCOCCC(=O)*
Molecular target: His-tagged CD38 (Homo sapiens, UniProt P28907)
Assay: SPR assay (Biacore S200, Sensor Chip NTA, single-cycle kinetics) of SEQ ID NO.1 variants against His-tagged CD38
Assay type: binding
Conditions: for kon / koff: SPR Biacore S200, NTA chip, His-tagged CD38; for kon: read-out: Ka (association rate constant); for koff: read-out: Kd (dissociation rate constant); for Kd: SPR Biacore S200, His-tagged CD38, calculated from ka and kd
Protocol: SPR assay was performed using Biacore S200 (Cytiva: Former GE Healthcare).
After the equilibration of Series S Sensor Chip NTA (produced by Cytiva: Former GE Healthcare) with Running Buffer (10 mM HEPES pH7.4, 150 mM NaCl, 0.05% Tween 20), followed by injection of 350 mM EDTA at a flow rate of 10 L/min for 60 seconds and […] NiCl2 at a flow rate of 10 L/min for 60 seconds, then 3 mM EDTA at a flow rate of 10 L/min for 120 seconds, sequently, to wash the sensor chip.
EDC/NHS mixture was injected at a flow rate of […] for 7 minutes to thereby activate the functional groups on sensor chip. His-tagged CD38 in Running Buffer (10 mM HEPES pH7.4, 150 mM NaCl, 0.05% Tween 20) was injected immobilized to at a flow rate of […]. For 7 minutes to immobilize the CD38 on the substrate surfaces of the sensor chip. Then Ethanolamine was injected at a flow rate of […] for 7 minutes.
1.0 M Ethanolamine(aq.) was injected at a flow rate of 10 L/min for 420 seconds for capping. 10 mM peptides (which were synthesised described above) in DMSO were diluted to obtain 10 uM with Running Buffer, and prepared 100 nM, 50 nM, 25 nM, 10 nM, 5 nM of each peptide's solutions (Peptide Samples).
Using these Peptide Samples, kinetics of peptides against His-tagged CD38 was measured. The method adopted for sample measurement was a single-cycle kinetics method. The analysis was conducted using the evaluation software 1.1 provided with Biacore S200. A DMSO correction curve obtained by solvent correction measurements was applied for the analysis. Kinetics fitting was done on the difference data obtained by subtracting the baseline data from sample measurement data.
KD values were calculated based on the association rate constant (ka) and dissociation rate constant (kd).

Row | Compound | kon [M⁻¹ s⁻¹] | koff [s⁻¹] | Kd [nM]
1 | CCCCC[C@@H]1NC(=O)[C@H](CCCNC(=N)N)NC(=O)[C@H](C)NC(=O)CSC[C@@H](C(N)=O)NC(=O)[C@H](CC(=O)O)NC(=O)[C@H](CCCCC)NC(=O)[C@H](Cc2ccc(-c3ccccc3)cc2)NC(=O)[C@H](CC(C)C)NC(=O)[C@H](C(C)C)NC(=O)[C@H](CCC(=O)O)NC(=O)[C@H](CC(=O)O)NC(=O)[C@H](Cc2c[nH]cn2)NC(=O)[C@H](C)NC1=O [compound 21] ({CH2CO}-AR[Ahp(2)]AHDEVL[Bip][Ahp(2)]DC-NH2; thioether N-13 (inferred); N-terminus and C-terminus assumed) | 310000 | 0.016 | 
2 | CCCCC[C@@H]1NC(=O)[C@H](CCCNC(=NC)NC)NC(=O)[C@H](C)NC(=O)CSC[C@@H](C(N)=O)NC(=O)[C@H](CC(=O)O)NC(=O)[C@H](CCCCc2ccccc2)NC(=O)[C@H](Cc2ccc(-c3ccccc3)cc2)NC(=O)[C@H](CC(C)C)NC(=O)[C@H](C(C)C)NC(=O)[C@H](CCC(=O)O)NC(=O)[C@H](CC(=O)O)NC(=O)[C@H](Cc2c[nH]cn2)NC(=O)[C@H](Cc2ccc(O)cc2)NC1=O [compound 31] ({CH2CO}-A[Arg(Me2s)][Ahp(2)]YHDEVL[Bip][Nle(6-Ph)]DC-NH2; thioether N-13) | 480000 | 0.0012 | 2.6
3 | CCCCC[C@@H]1NC(=O)[C@H](Cc2ccc(-c3ccccc3)cc2)NC(=O)[C@H](CC(C)C)NC(=O)[C@H](C(C)C)NC(=O)[C@H](CCC(=O)O)NC(=O)[C@H](CC(=O)O)NC(=O)[C@H](Cc2c[nH]cn2)NC(=O)[C@H](Cc2ccc(O)cc2)NC(=O)[C@H](CCCCC)NC(=O)[C@H](CCCNC(=N)N)NC(=O)[C@@H](C)NC(=O)CSC[C@@H](C(N)=O)NC(=O)[C@H](CC(=O)O)NC1=O [compound 20] ({CH2CO}-[dA]R[Ahp(2)]YHDEVL[Bip][Ahp(2)]DC-NH2; thioether N-13) | 730000 | 0.0077 | 10.6
4 | CCCCC[C@@H]1NC(=O)[C@H](CCCNC(N)=O)NC(=O)[C@H](C)NC(=O)CSC[C@@H](C(N)=O)NC(=O)[C@H](CC(=O)O)NC(=O)[C@H](CCCCc2ccccc2)NC(=O)[C@H](Cc2ccc(-c3ccccc3)cc2)NC(=O)[C@H](CC(C)C)NC(=O)[C@H](C(C)C)NC(=O)[C@H](CCC(=O)O)NC(=O)[C@H](CC(=O)O)NC(=O)[C@H](Cc2c[nH]cn2)NC(=O)[C@H](Cc2ccc(O)cc2)NC1=O [compound 28] ({CH2CO}-A[Cit][Ahp(2)]YHDEVL[Bip][Nle(6-Ph)]DC-NH2; thioether N-13) | 680000 | 0.0016 | 2.4
5 | CCCCC[C@@H]1NC(=O)[C@H](CCCNC(=N)N)NC(=O)[C@H](C)NC(=O)CSC[C@@H](C(N)=O)NC(=O)[C@H](CC(=O)O)NC(=O)[C@H](CCCCC)NC(=O)[C@H](Cc2ccc(-c3ccccc3)cc2)NC(=O)[C@H](CC(C)C)NC(=O)[C@H](C(C)C)NC(=O)[C@H](CC(N)=O)NC(=O)[C@H](CC(=O)O)NC(=O)[C@H](Cc2c[nH]cn2)NC(=O)[C@H](Cc2ccc(O)cc2)NC1=O [compound 5] ({CH2CO}-AR[Ahp(2)]YHDNVL[Bip][Ahp(2)]DC-NH2; thioether N-13) | 766000 | 0.00161 | 
6 | CCCCC[C@@H]1NC(=O)[C@H](CCCNC(=N)N)NC(=O)[C@H](C)NC(=O)CSC[C@@H](C(N)=O)NC(=O)[C@H](CC(=O)O)NC(=O)[C@H](CCCCC)NC(=O)[C@H](Cc2ccc(-c3ccccc3)cc2)NC(=O)[C@H](CC(C)C)NC(=O)[C@H](C(C)C)NC(=O)[C@H](CCC(=O)O)NC(=O)[C@H](CC(=O)O)NC(=O)[C@H](Cc2c[nH]c3cnccc23)NC(=O)[C@H](Cc2ccc(O)cc2)NC1=O [compound 22] ({CH2CO}-AR[Ahp(2)]Y[Trp(6-aza)]DEVL[Bip][Ahp(2)]DC-NH2; thioether N-13) | 790000 | 0.0087 | 10.9
7 | CCCCC[C@@H]1NC(=O)C(Cc2cccc(NC(=N)N)c2)NC(=O)[C@H](C)NC(=O)CSC[C@@H](C(N)=O)NC(=O)[C@H](CC(=O)O)NC(=O)[C@H](CCCCC)NC(=O)[C@H](Cc2ccc(-c3ccccc3)cc2)NC(=O)[C@H](CC(C)C)NC(=O)[C@H](C(C)C)NC(=O)[C@H](CCC(=O)O)NC(=O)[C@H](CC(=O)O)NC(=O)[C@H](Cc2c[nH]cn2)NC(=O)[C@H](Cc2ccc(O)cc2)NC1=O (stereo partly shown) [compound 29] ({CH2CO}-A[X2][Ahp(2)]YHDEVL[Bip][Ahp(2)]DC-NH2; thioether N-13; C-terminus assumed) | 380000 | 0.00078 | 
8 | CCCCC[C@@H]1NC(=O)[C@H](CCCNC(=N)N)NC(=O)[C@H](C)NC(=O)CSC[C@@H](C(N)=O)NC(=O)[C@H](CC(=O)O)NC(=O)[C@H](CCCc2ccccc2)NC(=O)[C@H](Cc2ccc(-c3ccccc3)cc2)NC(=O)[C@H](CC(C)C)NC(=O)[C@H](C(C)C)NC(=O)[C@H](CCC(=O)O)NC(=O)[C@H](CC(=O)O)NC(=O)[C@H](Cc2c[nH]cn2)NC(=O)[C@H](Cc2ccc(O)cc2)NC1=O [compound 26] ({CH2CO}-AR[Ahp(2)]YHDEVL[Bip][hhPhe]DC-NH2; thioether N-13) | 1.9e+06 | 0.05 | 
9 | CCCCC[C@@H]1NC(=O)[C@H](CCCNC(=N)N)NC(=O)[C@H](C)NC(=O)CSC[C@@H](C(N)=O)NC(=O)[C@H](CC(=O)O)NC(=O)[C@H](CCCCC)NC(=O)[C@H](Cc2ccc(-c3ccccc3)cc2)NC(=O)[C@H]([C@@H](C)O)NC(=O)[C@H](C(C)C)NC(=O)CNC(=O)[C@H](CC(=O)O)NC(=O)[C@H](Cc2c[nH]cn2)NC(=O)[C@H](Cc2ccc(O)cc2)NC1=O [compound 7] ({CH2CO}-AR[Ahp(2)]YHDGVT[Bip][Ahp(2)]DC-NH2; thioether N-13) | 819000 | 0.0535 | 
10 | CCCCC[C@@H]1NC(=O)[C@H](CCCNC(=N)N)NC(=O)[C@H](C)NC(=O)CSC[C@@H](C(N)=O)NC(=O)[C@H](CC(=O)O)NC(=O)[C@H](CCCCC)NC(=O)[C@H](Cc2ccc(-c3ccccc3)cc2)NC(=O)[C@H](CCS(C)(=O)=O)NC(=O)[C@H](C(C)C)NC(=O)[C@H](CCC(N)=O)NC(=O)[C@H](CC(=O)O)NC(=O)[C@H](Cc2c[nH]cn2)NC(=O)[C@H](Cc2ccc(O)cc2)NC1=O [compound 13] ({CH2CO}-AR[Ahp(2)]YHDQV[Met(O2)][Bip][Ahp(2)]DC-NH2; thioether N-13) | 1.1e+06 | 0.024 | 
11 | CCCCC[C@@H]1NC(=O)[C@H](CCCCNC(N)=O)NC(=O)[C@H](C)NC(=O)CSC[C@@H](C(N)=O)NC(=O)[C@H](CC(=O)O)NC(=O)[C@H](CCCCc2ccccc2)NC(=O)[C@H](Cc2ccc(-c3ccccc3)cc2)NC(=O)[C@H](CC(C)C)NC(=O)[C@H](C(C)C)NC(=O)[C@H](CCC(=O)O)NC(=O)[C@H](CC(=O)O)NC(=O)[C@H](Cc2c[nH]cn2)NC(=O)[C@H](Cc2ccc(O)cc2)NC1=O [compound 33] ({CH2CO}-A[hCit][Ahp(2)]YHDEVL[Bip][Nle(6-Ph)]DC-NH2; thioether N-13) | 220000 | 0.0015 | 6.7
12 | CCCCC[C@@H]1NC(=O)[C@H](Cc2ccc(-c3ccccc3)cc2)NC(=O)[C@H](CC(C)C)NC(=O)[C@H](C(C)C)NC(=O)[C@H](CCC(=O)O)NC(=O)[C@H](CC(=O)O)NC(=O)[C@H](Cc2c[nH]cn2)NC(=O)[C@H](Cc2ccc(O)cc2)NC(=O)[C@H](CCCCC)NC(=O)[C@H](CCCNC(=N)N)NC(=O)[C@H](CCCCNC(=O)CCOCCOCCOCCOC)NC(=O)CSC[C@@H](C(N)=O)NC(=O)[C@H](CC(=O)O)NC1=O [compound 17] ({CH2CO}-K(X1)R[Ahp(2)]YHDEVL[Bip][Ahp(2)]DC-NH2; thioether N-13) | 210000 | 0.00091 | 4.37
13 | CCCCC[C@@H]1NC(=O)[C@H](CCCNC(=N)N)NC(=O)[C@H](C)NC(=O)CSC[C@@H](C(N)=O)NC(=O)[C@H](CC(=O)O)NC(=O)[C@H](CCCCc2ccccc2)NC(=O)[C@H](Cc2ccc(-c3ccccc3)cc2)NC(=O)[C@H](CC(C)C)NC(=O)[C@H](C(C)C)NC(=O)[C@H](CCC(=O)O)NC(=O)[C@H](CC(=O)O)NC(=O)[C@H](Cc2c[nH]cn2)NC(=O)[C@H](Cc2ccc(O)cc2)NC1=O [compound 25] ({CH2CO}-AR[Ahp(2)]YHDEVL[Bip][Nle(6-Ph)]DC-NH2; thioether N-13) | 630000 | 0.00087 | 
14 | CCCCCCC[C@@H]1NC(=O)[C@H](Cc2ccc(-c3ccccc3)cc2)NC(=O)[C@H](CC(C)C)NC(=O)[C@H](C(C)C)NC(=O)[C@H](CCC(=O)O)NC(=O)[C@H](CC(=O)O)NC(=O)[C@H](Cc2c[nH]cn2)NC(=O)[C@H](Cc2ccc(O)cc2)NC(=O)[C@H](CCCCC)NC(=O)[C@H](CCCNC(=N)N)NC(=O)[C@H](C)NC(=O)CSC[C@@H](C(N)=O)NC(=O)[C@H](CC(=O)O)NC1=O [compound 23] ({CH2CO}-AR[Ahp(2)]YHDEVL[Bip][X4]DC-NH2; thioether N-13) | 820000 | 0.0027 | 

— patent publication US20250263440A1, “CD38-BINDING AGENTS AND USES THEREOF” (PeptiDream Inc., priority 2019, published 2025)
